{"source": "patent US9340574B2", "about": "“Inhibitors of protein tyrosine phosphatases” (Indiana University Research and Technology Corporation, priority 2012, dated 2016)", "key": {"LAR": {"target": "LAR (Homo sapiens (Human), UniProt P10586)", "assay": "pNPP hydrolysis enzyme assay, LAR", "type": "biochemical", "protocol": "(§1) Enzyme kinetic assay. PTP activity was assayed using p-nitrophenyl phosphate (pNPP) as a substrate in 3,3-dimethylglutarate buffer (50 mM 3,3-dimethylglutarate, pH 7.0, 1 mM EDTA, 150 mM NaCl, 2 mM DTT, 0.1 mg/mL BSA) at 25° C. The assays were performed in 96-well plates. Normally, to determine the IC50 values, the reaction was initiated by the addition of enzyme (final concentration at 10 nM) to a reaction mixture (0.2 mL) containing 2 mM (Km for the substrate) pNPP with various concentrations of inhibitors. The reaction rate was measured using a SpectraMax Plus 384 Microplate Spectrophotometer (Molecular Devices). To determine the mode of inhibition, the reactions were initiated by the addition of PTP-MEG2 to the reaction mixtures (0.2 mL) containing various concentrations of pNPP with different concentrations of the inhibitor 7. Data were fitted using SigmaPlot Enzyme Kinetics Module (Systat Software, Inc.)."}, "TC-PTP": {"target": "TC-PTP (Homo sapiens (Human), UniProt P17706)", "sequence (P17706 whole entry, looked up, species assumed)": "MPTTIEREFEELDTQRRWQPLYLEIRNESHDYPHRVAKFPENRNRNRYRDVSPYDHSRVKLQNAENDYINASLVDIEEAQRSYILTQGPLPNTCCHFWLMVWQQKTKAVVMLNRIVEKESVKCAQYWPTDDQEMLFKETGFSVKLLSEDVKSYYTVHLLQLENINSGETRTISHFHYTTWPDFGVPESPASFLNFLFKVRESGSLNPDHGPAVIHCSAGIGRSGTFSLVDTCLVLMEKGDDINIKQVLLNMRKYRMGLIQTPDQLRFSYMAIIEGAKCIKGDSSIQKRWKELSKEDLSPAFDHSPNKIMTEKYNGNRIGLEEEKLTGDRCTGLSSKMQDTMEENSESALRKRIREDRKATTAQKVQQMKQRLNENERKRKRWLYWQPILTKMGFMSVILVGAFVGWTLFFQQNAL", "assay": "pNPP hydrolysis enzyme assay, TC-PTP", "type": "biochemical", "details": "for IC50: pNPP substrate", "protocol": "as §1"}, "HepG2 hepatocytes": {"system": "HepG2 hepatocytes", "assay": "Insulin signaling in HepG2 hepatocytes", "type": "cell-based", "details": "HepG2, 1 hour pretreatment, 10 nM insulin 30 min", "protocol": "(§2) Cell lysate (20 μg protein) was subjected to 10% SDS-PAGE and probed with phospho-Akt, phospho-IR (Y1162/1163) or Akt antibody, respectively. […] Cell lysate (20 μg protein) was subjected to 10% SDS-PAGE and probed with phospho-IR(Y1162/1163), phospho-Akt (pS473) or total Akt antibody, respectively. […] Cell lysate (20 μg protein) or insulin receptor immunoprecipitation beads were subjected to 10% SDS-PAGE and probed with phospho-Akt, Akt, insulin receptor beta or phospho-tyrosine antibody (4G10), respectively. The non-specific band from insulin receptor immunoprecipitates served as a loading control for insulin receptor and phospho-insulin receptor.\n(§3) Western blot analysis. Cells were homogenized in the lysis buffer (50 mM Hepes, pH 7.5, 150 mM NaCl, 10% Glycerol, 1% Triton X-100, 1.5 mM MgCl2, 1 mM EGTA, 10 μM Sodium Pyrophosphate, 100 mM sodium fluoride and freshly added 100 μM sodium vanadate, 1 mM PMSF, 10 μg/ml Aprotinin, and 10 μg/mL Leupeptin). Protein extracts were resolved on an SDS-PAGE gel and transferred to nitrocellulose membrane. […] Protein signals were detected by incubation with HRP-conjugated secondary antibodies, followed by ECL detection reagent (Pierce). Western blots were scanned and quantified using the Quantity One software (Bio-Rad)."}, "DEP1": {"target": "DEP1 (Homo sapiens (Human), UniProt Q12913)", "sequence (Q12913 36-1337, species assumed)": "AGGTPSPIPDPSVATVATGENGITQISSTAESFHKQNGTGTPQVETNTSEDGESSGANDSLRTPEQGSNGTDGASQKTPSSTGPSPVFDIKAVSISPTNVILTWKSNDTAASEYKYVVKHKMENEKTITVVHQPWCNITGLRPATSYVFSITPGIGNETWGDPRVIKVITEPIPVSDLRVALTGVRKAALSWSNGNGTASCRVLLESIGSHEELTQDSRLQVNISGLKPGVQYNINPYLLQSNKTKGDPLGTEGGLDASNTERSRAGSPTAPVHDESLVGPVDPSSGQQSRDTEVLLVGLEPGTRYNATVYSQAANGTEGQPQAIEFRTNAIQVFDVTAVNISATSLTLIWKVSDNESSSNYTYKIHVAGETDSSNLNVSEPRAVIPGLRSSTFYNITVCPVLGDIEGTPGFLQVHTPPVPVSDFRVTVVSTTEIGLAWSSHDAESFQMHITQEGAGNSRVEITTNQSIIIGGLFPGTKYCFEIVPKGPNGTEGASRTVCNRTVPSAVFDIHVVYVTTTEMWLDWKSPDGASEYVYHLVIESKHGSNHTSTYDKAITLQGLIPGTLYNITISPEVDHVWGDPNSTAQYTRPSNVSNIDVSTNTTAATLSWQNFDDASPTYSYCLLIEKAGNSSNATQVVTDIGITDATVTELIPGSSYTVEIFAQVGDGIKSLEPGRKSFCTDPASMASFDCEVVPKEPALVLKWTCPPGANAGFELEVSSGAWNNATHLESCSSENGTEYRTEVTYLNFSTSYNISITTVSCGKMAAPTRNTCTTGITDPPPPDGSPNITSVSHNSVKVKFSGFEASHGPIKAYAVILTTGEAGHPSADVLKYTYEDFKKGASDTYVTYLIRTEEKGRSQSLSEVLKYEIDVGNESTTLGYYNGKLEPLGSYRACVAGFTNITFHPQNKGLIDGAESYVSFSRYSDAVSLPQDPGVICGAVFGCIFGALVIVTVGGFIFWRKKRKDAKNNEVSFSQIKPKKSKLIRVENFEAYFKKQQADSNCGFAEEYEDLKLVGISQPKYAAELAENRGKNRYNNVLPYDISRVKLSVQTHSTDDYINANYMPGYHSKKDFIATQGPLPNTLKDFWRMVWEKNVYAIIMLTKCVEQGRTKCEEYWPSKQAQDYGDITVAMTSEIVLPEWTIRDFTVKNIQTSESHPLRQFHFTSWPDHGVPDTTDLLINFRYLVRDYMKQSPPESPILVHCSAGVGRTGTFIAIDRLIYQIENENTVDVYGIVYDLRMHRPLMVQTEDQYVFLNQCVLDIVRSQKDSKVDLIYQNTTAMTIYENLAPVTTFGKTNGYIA", "assay": "pNPP hydrolysis enzyme assay, DEP1", "type": "biochemical", "protocol": "as §1"}, "Laforin": {"target": "Laforin (Homo sapiens (Human), UniProt O95278)", "sequence (O95278 whole entry, species assumed)": "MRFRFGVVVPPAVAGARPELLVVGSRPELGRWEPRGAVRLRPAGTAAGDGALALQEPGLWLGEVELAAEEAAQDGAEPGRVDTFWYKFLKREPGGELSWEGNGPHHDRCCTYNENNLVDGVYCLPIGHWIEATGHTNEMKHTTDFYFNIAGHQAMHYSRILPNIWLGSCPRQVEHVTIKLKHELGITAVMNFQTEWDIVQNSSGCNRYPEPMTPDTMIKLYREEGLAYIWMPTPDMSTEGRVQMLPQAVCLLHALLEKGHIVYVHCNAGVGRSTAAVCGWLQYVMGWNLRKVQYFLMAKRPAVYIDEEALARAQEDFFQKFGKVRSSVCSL", "assay": "pNPP hydrolysis enzyme assay, Laforin", "type": "biochemical", "protocol": "as §1"}, "SHP1": {"target": "SHP1 (Homo sapiens (Human), UniProt P29350)", "sequence (P29350 whole entry)": "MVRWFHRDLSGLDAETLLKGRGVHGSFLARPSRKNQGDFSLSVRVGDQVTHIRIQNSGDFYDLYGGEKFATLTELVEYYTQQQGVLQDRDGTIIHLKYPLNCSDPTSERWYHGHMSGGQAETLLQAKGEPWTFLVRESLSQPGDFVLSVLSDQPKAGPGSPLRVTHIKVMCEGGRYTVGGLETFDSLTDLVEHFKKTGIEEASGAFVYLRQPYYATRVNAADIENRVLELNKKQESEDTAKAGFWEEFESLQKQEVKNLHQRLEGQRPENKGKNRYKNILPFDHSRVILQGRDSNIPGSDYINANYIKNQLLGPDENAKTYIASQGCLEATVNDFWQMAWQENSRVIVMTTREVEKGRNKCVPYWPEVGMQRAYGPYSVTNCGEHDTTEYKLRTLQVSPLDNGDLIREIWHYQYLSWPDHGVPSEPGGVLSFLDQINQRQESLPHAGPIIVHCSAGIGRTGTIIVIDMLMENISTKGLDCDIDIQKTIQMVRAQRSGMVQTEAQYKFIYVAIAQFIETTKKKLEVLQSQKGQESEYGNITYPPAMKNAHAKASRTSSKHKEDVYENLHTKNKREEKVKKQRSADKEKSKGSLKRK", "assay": "pNPP hydrolysis enzyme assay, SHP1", "type": "biochemical", "protocol": "as §1"}, "PTP-PEST": {"target": "PTP-PEST (Homo sapiens (Human), UniProt Q05209)", "sequence (Q05209 whole entry, species assumed)": "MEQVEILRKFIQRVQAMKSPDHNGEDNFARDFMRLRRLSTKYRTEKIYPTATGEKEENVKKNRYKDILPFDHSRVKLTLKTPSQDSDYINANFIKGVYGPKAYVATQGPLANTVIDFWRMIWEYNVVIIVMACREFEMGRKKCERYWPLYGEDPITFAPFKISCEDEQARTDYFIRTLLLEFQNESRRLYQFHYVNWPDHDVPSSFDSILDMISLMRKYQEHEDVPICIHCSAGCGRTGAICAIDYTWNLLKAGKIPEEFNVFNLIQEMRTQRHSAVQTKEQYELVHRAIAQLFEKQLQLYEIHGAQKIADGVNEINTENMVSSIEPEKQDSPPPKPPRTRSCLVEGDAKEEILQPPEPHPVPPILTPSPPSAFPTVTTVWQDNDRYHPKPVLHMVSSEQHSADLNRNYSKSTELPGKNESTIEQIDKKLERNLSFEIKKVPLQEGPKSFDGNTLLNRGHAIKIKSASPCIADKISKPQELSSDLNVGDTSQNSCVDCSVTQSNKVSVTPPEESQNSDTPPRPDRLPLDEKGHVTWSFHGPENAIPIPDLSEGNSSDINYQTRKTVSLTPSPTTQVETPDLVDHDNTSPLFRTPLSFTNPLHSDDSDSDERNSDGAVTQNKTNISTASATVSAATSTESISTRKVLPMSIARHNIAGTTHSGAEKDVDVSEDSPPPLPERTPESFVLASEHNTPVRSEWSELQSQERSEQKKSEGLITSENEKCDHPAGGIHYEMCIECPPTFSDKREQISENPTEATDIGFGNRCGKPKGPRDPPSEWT", "assay": "pNPP hydrolysis enzyme assay, PTP-PEST", "type": "biochemical", "protocol": "as §1"}, "[1]": {"system": "diet-induced obese C57BL/6 mice", "assay": "Pyruvate tolerance test in diet-induced obese mice", "type": "in vivo, mouse", "details": "5 mg/kg i.p. twice a day", "protocol": "(§4) C57BL/6J mice were fed a high-fat diet for 10 weeks before Compound 7 or vehicle was injected intraperitoneally twice a day at a dose of 5 mg/kg body weight. FIG. 5A depicts insulin tolerance tests (ITT) performed on Day 7 by injecting intraperitoneally a bolus of 0.75 unit/kg of human regular insulin. […] FIG. 5C depicts glucose tolerance tests (GTT) carried out on Day 9 after a bolus of 1 g/kg glucose was injected intraperitoneally. […] FIG. 5E depicts pyruvate tolerance tests (PTT) performed on Day 12 after an injection of 2 g/kg pyruvate solution. […] At the end of 2-week injections of Compound 7, animals were fasted overnight and stimulated with a bolus of 1 unit of human regular insulin or saline via vena cava. Three minutes later, liver, skeletal muscle, and white adipose tissue (WAT) were collected sequentially for insulin signaling analysis. FIG. 5G depicts the phosphorylation of Tyr1162/1163 in insulin receptor (IR) and Ser473 phosphorylation in Akt kinases and the corresponding proteins in the liver, skeletal muscle, and white adipose tissue (WAT) were analyzed by immunoblots.\n(§5) To this end, we intraperitoneally injected Compound 7 into diet-induced obese C57BL/6 mice at a dose of 5 mg/kg twice a day. […] After 7 days of injections, we performed insulin tolerance tests to measure insulin sensitivity in vehicle and Compound 7 treated mice."}, "[2]": {"system": "diet-induced obese C57BL/6 mice", "assay": "Glucose tolerance test in diet-induced obese mice", "details": "5 mg/kg i.p. twice a day", "protocol": "as §4, §5"}, "PTP-MEG1": {"target": "PTP-MEG1 (Homo sapiens (Human), UniProt P29074)", "sequence (P29074 whole entry)": "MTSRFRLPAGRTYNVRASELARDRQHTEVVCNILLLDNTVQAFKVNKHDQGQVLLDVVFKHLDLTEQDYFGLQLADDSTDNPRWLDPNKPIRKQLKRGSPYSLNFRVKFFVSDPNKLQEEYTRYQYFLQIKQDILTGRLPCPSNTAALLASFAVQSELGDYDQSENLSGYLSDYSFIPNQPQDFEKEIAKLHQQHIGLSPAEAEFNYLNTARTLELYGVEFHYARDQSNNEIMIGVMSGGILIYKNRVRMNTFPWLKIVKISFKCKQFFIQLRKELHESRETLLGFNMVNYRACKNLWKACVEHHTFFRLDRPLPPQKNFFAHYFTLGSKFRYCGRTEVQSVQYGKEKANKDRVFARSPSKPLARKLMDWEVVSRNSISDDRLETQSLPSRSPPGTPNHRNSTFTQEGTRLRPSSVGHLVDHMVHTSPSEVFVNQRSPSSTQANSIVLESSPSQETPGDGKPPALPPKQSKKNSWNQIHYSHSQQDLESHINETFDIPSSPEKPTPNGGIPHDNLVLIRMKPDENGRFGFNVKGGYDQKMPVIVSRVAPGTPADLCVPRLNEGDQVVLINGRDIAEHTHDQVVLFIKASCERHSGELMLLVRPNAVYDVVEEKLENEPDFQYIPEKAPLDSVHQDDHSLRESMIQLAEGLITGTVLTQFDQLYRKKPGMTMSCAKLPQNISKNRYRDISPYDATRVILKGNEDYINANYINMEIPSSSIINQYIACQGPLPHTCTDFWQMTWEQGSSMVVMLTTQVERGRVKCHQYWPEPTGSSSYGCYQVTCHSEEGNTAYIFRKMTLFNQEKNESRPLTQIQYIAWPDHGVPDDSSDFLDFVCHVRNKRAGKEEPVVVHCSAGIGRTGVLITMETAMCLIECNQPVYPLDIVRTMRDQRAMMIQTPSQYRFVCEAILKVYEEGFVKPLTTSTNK", "assay": "pNPP hydrolysis enzyme assay, PTP-MEG1", "type": "biochemical", "protocol": "as §1"}, "[3]": {"system": "3T3-L1 differentiated adipocytes", "assay": "Insulin signaling in 3T3-L1 differentiated adipocytes", "type": "cell-based", "details": "3T3-L1 adipocytes, 1 hour pretreatment before insulin", "protocol": "as §2, §3"}, "FAP1": {"target": "FAP1 (Homo sapiens (Human), UniProt Q12923)", "assay": "pNPP hydrolysis enzyme assay, FAP1", "type": "biochemical", "protocol": "as §1"}}, "note": "Read-outs that look alike come from different tables or passages of the source.", "data": [{"smiles": "COc1cc(CC(=O)NCC(NC(=O)C(CCCNC(=O)c2cccc(I)c2)NC(=O)C(Cc2ccc(C(F)(F)P(=O)(O)O)cc2)NC(=O)c2ccc(C)c(Br)c2)C(N)=O)ccc1O", "note": "(stereo not shown) [Compound 7]", "values": [{"measurement": "IC50", "setting": "LAR", "value": "> 10000", "unit": "nM"}, {"measurement": "IC50", "setting": "TC-PTP; read-out: IC50 (nM) TC-PTP", "value": 830, "unit": "nM"}, {"measurement": "IC50", "setting": "TC-PTP; read-out: IC50 for TC-PTP", "value": 830, "unit": "nM"}, {"measurement": "selectivity for PTP-MEG2 over TC-PTP", "setting": "TC-PTP; ratio of IC50 values", "value": "more than 10 fold"}, {"measurement": "insulin signaling (phospho-IR, phospho-Akt)", "setting": "HepG2 hepatocytes", "value": "augmented insulin signaling"}, {"measurement": "IC50", "setting": "DEP1", "value": "> 10000", "unit": "nM"}, {"measurement": "IC50", "setting": "Laforin", "value": "> 10000", "unit": "nM"}, {"measurement": "IC50", "setting": "SHP1", "value": "> 10000", "unit": "nM"}, {"measurement": "IC50", "setting": "PTP-PEST", "value": "> 10000", "unit": "nM"}, {"measurement": "hepatic gluconeogenesis in pyruvate tolerance test", "setting": "[1]; Day 12", "value": "significant suppression of hepatic gluconeogenesis"}, {"measurement": "better pyruvate tolerance (AUC)", "setting": "[1]; Day 12, vs vehicle", "value": 25, "unit": "%"}, {"measurement": "glucose clearance in glucose tolerance test", "setting": "[2]; Day 9, at 15, 30, and 60 minutes", "value": "significantly enhanced glucose clearance"}, {"measurement": "improvement in glucose disposal (AUC)", "setting": "[2]; Day 9, vs vehicle", "value": 21, "unit": "%"}, {"measurement": "IC50", "setting": "PTP-MEG1", "value": "> 10000", "unit": "nM"}, {"measurement": "insulin signaling (phospho-Akt, phospho-IR)", "setting": "[3]", "value": "augmented insulin signaling"}, {"measurement": "IC50", "setting": "FAP1", "value": "> 10000", "unit": "nM"}]}]}
